Source: patent US11859248B2, “Nucleic acid modification and identification method” (IMBA—INSTITUT FÜR MOLEKULARE BIOTECHNOLOGIE GMBH, priority 2017, dated 2024)

Legend:
MYC [1] = test: Auxin-inducible degradation of AID-tagged MYC in K562 cells (immunoblotting); type: cell-based, human; conditions: Tir1-expressing
MYC [2] = test: Auxin-inducible degradation of AID-tagged MYC in HCT116 cells (immunoblotting); type: cell-based, human; conditions: TIR1-expressing HCT116 MYC-AID cells
BRD4 = test: Auxin-inducible degradation of AID-tagged BRD4 in K562 cells (immunoblotting); type: cell-based, human; conditions: AID-tagged K562 cells expressing Tir1
K562 cells = test: SLAM-seq transcriptional response in K562 cells; type: cell-based, human
Protocol: (§1) All SLAM-seq assays were performed at 60-70% confluency for adherent cells or 60% of the maximum cell density counted on a hemocytometer for suspension cells. 5-7 h prior to each assay, growth medium was aspirated and replaced. Unless stated otherwise, cells were pre-treated with indicated small molecule inhibitors or 100 μM IAA for 30 minutes to pre-establish full target inhibition or degradation. Newly synthesized RNA was labeled for indicated time spans (45′ or 60′) at a final concentration of 100 μM 4-thiouridine (s^4U, Carbosynth). Adherent cells were harvested by direct snap-freezing of plates on dry ice. Suspension cells were spun down and immediately snap-frozen. RNA extraction was performed using the RNeasy Plus Mini Kit (Qiagen). Total RNA was subjected to alkylation by iodoacetamide (Sigma, 10 mM) for 15′ and RNA was re-purified by ethanol precipitation. […]
(§2) All other SLAM-seq experiments were performed in triplicates and analyzed as follows. Differential gene expression calling was performed on raw read counts with 2 T>C conversions using DESeq2 (version 1.14.1) with default settings, and with size factors estimated on corresponding total mRNA reads for global normalization. […]

Pol2-S2 phosphorylation [3] = test: Pol2-S2 phosphorylation after BETi treatment in MV4-11 cells; type: cell-based, human; conditions: high-dose (1 or 5 μM)
Protocol: (§3) Chemiluminescent detection of primary antibodies was performed using HRP-conjugated secondary antibodies (Cell Signaling Technology, catalog numbers #7074, #7076 and #7077). Alternatively, fluorescence detection of rabbit and mouse primary antibodies was performed on an Odyssey CLx Imaging System (LI-COR Biosciences) using secondary antibodies IRDye 680RD Goat anti-Rabbit IgG and IRDye 800CW Goat anti-Mouse IgG (LI-COR Biosciences).
(§4) While these findings are in line with the promiscuous binding of BRD4 to active TSS and its physical interaction with core transcriptional machinery, they contrast selective effects observed after BETi treatment in conventional expression analysis. To define immediate transcriptional effects of BETi and compare them to BRD4 degradation, we performed SLAM-seq following treatment with different doses of the BETi JQ1 in K562 cells and the acute myeloid leukemia (AML) cell line MV4-11.

Pol2-S2 phosphorylation [4] = test: Pol2-S2 phosphorylation after BETi treatment in K562 cells; type: cell-based, human; conditions: high-dose (1 or 5 μM)
Protocol: as §3, §4

MV4-11 = test: SLAM-seq transcriptional response in MV4-11 cells; type: cell-based, human; conditions: high-dose (1 or 5 μM)
Protocol: as §1, §2

MOLM-13 cells = test: SLAM-seq transcriptional response to NVP-2 and JQ1 in MOLM-13 cells; type: cell-based, human
Protocol: as §1, §2

[5] = system: reverse transcriptases (Superscript II, Superscript III, Quant-seq RT); test: Reverse transcription of synthetic thiol-nucleotide-containing RNA followed by high-throughput sequencing; type: biochemical; conditions: s^6G-containing RNA
Protocol: Primer extension assays were essentially performed as described previously by Nilsen et al. (Cold Spring Harb Protoc. 2013, 1182-1185). Briefly, template RNA oligonucleotides (5L-let-7-3L or 5L-let-7-s^4Up9-3L; Dharmacon; see Table for sequences) were deprotected according to the instructions of the manufacturer and purified by denaturing polyacrylamide gel-elution. 100 μM purified RNA oligonucleotides were treated with 10 mM iodoacetamide (+IAA) or EtOH (−IAA) in standard reaction conditions (50% DMSO, 50 mM sodiumphosphate buffer, pH 8) for 15 min at 50° C. The reaction was stopped by addition of 20 mM DTT, followed by ethanol precipitation. RT primer (see Table for sequence) was 5′ radiolabeled using γ-^32P-ATP (Perkin-Elmer) and T4-polynucleotide kinase (NEB), followed by denaturing polyacrylamide gel-purification. 640 nM γ-^32P-RT primer was annealed to 400 nM 5L-let-7-3L or 5L-let-7-s^4Up9-3L in 2× annealing buffer (500 mM KCl, 50 mM Tris pH 8.3) in a PCR machine (3 min 95° C., 30 sec 85° C. Ramp 0.5° C./s, 5 min 25° C. Ramp 0.1° C./s). Reverse transcription was performed using Superscript II (Invitrogen), Superscript III (Invitrogen), or Quant-seq RT (Lexogen) as recommended by the manufacturer. For dideoxynucleotide reactions, a final concentration of 500 μM ddNTP (as indicated) was added to RT reactions. Upon completion, RT reactions were resuspended in formamide loading buffer (Gel loading buffer II, Thermo Fisher Scientific) and subjected to 12.5% denaturing polyacrylamide gel electrophoresis. Gels were dried, exposed to storage phosphor screen (PerkinElmer), imaged on a Typhoon TRIO variable mode imager (Amersham Biosciences), and quantified using ImageQuant TL v7.0 (GE Healthcare). […]
For sequencing analysis of synthetic RNA samples (FIG. 5) barcoded libraries were demultiplexed using Picard Tools BamIndexDecoder v1.13 allowing 0 mismatches in the barcode. […] Remaining aligned reads were converted to pileup format. […] Output table was analyzed and plotted in Excel v15.22 (Microsoft) and Prism v7.0a (GraphPad). […]

Superscript II = biological target: T1, Superscript II (Moloney murine leukemia virus, UniProt P03355, D1183G/D1242N/E1221Q); test: pH-dependent reverse transcription of 5BrU-containing RNA oligonucleotide measured by sequencing; type: biochemical
T1 construct: purchased Thermo Fisher Scientific
Protocol: Further, it has been shown that 5BrU is taken up by cells, phosphorylated, and incorporated into nascent RNA (Larsen et al., Current Protocols in Cytometry. 12 (7.12): 7.12.1-7.12.11, 2001). […] We used […] of the synthetic RNA oligonucleotide which contained a 5BrU modification at a single central position. […] The reverse transcription was performed by Superscript II (Thermo Fisher Scientific) according to the instructions of the manufacturer using the RT DNA oligonucleotide primer (5″-[…]-3″, SEQ ID NO: 9) and 5×RT buffer for which pH was adjusted to pH7, pH8, or pH9, respectively. After reverse transcription, […] reverse transcription product was subjected to PCR amplification using KAPA Real-time Library Amplification Kit (KAPA Biosystems) according to the instructions of the manufacturer, using the DNA oligonucleotides Solexa PCR Fwd (5″-[…]-3′, SEQ ID NO: 10) and Solexa IDX rev (5′-[…]-3′, SEQ ID NO: 11; NNNNNN indicates the position of the barcode-nucleotides). The amplified libraries were sequenced by high-throughput sequencing using the Illumina MiSeq platform. The conversion rates for the 5BrU nucleotide were determined by counting the frequency of nucleotide A (adenine), G (guanine), and C (cytosine) other than the expected majority readout of T (thymine) at the position of 5BrU.
The pH-dependent conversion rates of 5BrU, or T in the final readout, to A (T>A conversion) show a 1.1-fold and 1.4-fold increase with an increase of pH during reverse transcription to pH 8 and pH 9 respectively compare to the background conversion rate of 3·10^−4 at pH 7 (FIG. 37C). The T>G conversion increases by 1.2- and 1.9-fold compare to the lower background conversion rate of 1·10^−4 at pH 7. In contrast, the T>C conversion rate increases by 2.2-fold and 4.3-fold compare to the background conversion rate of 3·10^−4 at pH 7. The signature of the pH dependent changes in conversion rates is characteristic for the 5BrU in the RNA and can be used to identify the number of 5BrU which are incorporated into nascent RNA during transcription.

O=C(O)Cc1c[nH]c2ccccc12 [auxin, indole-3-acetic acid]
time to degradation of MYC (MYC [1]): less than 30 ′
time to complete degradation of MYC (MYC [2]): less than 30 ′
time to near complete degradation of BRD4 (BRD4): ≤ 30 ′

Cc1sc2c(c1C)C(c1ccc(Cl)cc1)=N[C@@H](CC(=O)OC(C)(C)C)c1nnc(C)n1-2 [JQ1]
direct transcriptional response (K562 cells; 200 nM): selective deregulation of a small number of transcripts
direct transcriptional response (K562 cells; high-dose (1 or 5 μM)): broadly suppressed transcription
Pol2-S2 phosphorylation (Pol2-S2 phosphorylation [3]): globally reduced Pol2-S2 phosphorylation
Pol2-S2 phosphorylation (Pol2-S2 phosphorylation [4]): globally reduced Pol2-S2 phosphorylation
direct transcriptional response (MV4-11): broadly suppressed transcription

COC[C@@H](C)NC1CCC(Nc2cc(-c3cccc(NCC4(C#N)CCOCC4)n3)c(Cl)cn2)CC1 (some centres unmarked) [NVP-2]
transcriptional response (MOLM-13 cells; high-dose, 60 nM): globally suppressed transcription
transcriptional response (MOLM-13 cells; intermediate dose, 6 nM): selective transcriptional responses

4-thiouridine [s^4U]
conversion observed [5]: G to A conversion

O=c1[nH]c(=O)n([C@@H]2O[C@H](CO)[C@@H](O)[C@H]2O)cc1Br [5BrU, 5-Bromouridine]
T>A background conversion rate (Superscript II; pH 7): 3·10^−4
T>C background conversion rate (Superscript II; pH 7): 3·10^−4
T>G background conversion rate (Superscript II; pH 7): 1·10^−4
increase of T>A conversion rate relative to pH 7 (Superscript II; pH 8): 1.1 fold
increase of T>C conversion rate relative to pH 7 (Superscript II; pH 8): 2.2 fold
increase of T>G conversion rate relative to pH 7 (Superscript II; pH 8): 1.2 fold
increase of T>A conversion rate relative to pH 7 (Superscript II; pH 9): 1.4 fold
increase of T>C conversion rate relative to pH 7 (Superscript II; pH 9): 4.3 fold
increase of T>G conversion rate relative to pH 7 (Superscript II; pH 9): 1.9 fold
